Test results as given in patent US20170209579A1, “NON-INVASIVE RADIOFREQUENCY FIELD TREATMENT FOR CANCER THERAPY” (Baylor College of Medicine, priority 2014, published 2017).

Test system: Mre11
Assay: Colocalization of Mre11 with γ-H2AX foci at gemcitabine-stalled replication forks
Format: cell-based, human
Details: Hep3B
Source text: FIGS. 15A-15D provide inhibition of Mre11 and Rad51 recruitment at gemcitabine-stalled replication forks by hyperthermia. (15A) Hep3B cells were exposed to hyperthermia and/or gemcitabine. (15B) and (15C) Mre11 and Rad51 were recruited at gemcitabine-stalled replication forks. […] Scale bar=10 μm. (15D) Quantification of data from colocalization experiments. Data are mean Pearson correlation (a.u.) and error bars represent the SD from three independent experiments with 10 replicates each (*P<0.05, **P<0.01). Gem=Gemcitabine; HT=Hyperthermia; N/A=not applicable, i.e., in hyperthermia treated cells BrdU staining is not detected as distinct foci and therefore correlation could not be quantified; ns=not significant, by the Student unpaired two-sided t test in comparison with gemcitabine alone group. Also, see FIGS. 22-24. […]
For immunocytochemistry assay, an indirect immunofluorescence approach was used. […] Cells from an exponentially growing culture were counted and approximately 50,000 cells were seeded in each well of a 12-well plate. […]
The slides were sealed with a conventional nail polish hardener and stored at 4° C. until imaging. […] Exposure settings were set to maximize dynamic range initially and then kept constant across multiple samples to allow quantitative comparisons. […]

Nc1ccn([C@@H]2O[C@H](CO)[C@@H](O)C2(F)F)c(=O)n1 [gemcitabine, 2′,2′-difluoro 2′-deoxycytidine]
mean Pearson correlation, Mre11 with γ-H2AX foci (gemcitabine alone (10 μg/ml)): 0.37 | mean Pearson correlation, Mre11 with γ-H2AX foci (hyperthermia 42.5° C. 75 minutes then gemcitabine 10 μg/ml): 0.23
